Assay results from patent publication US20250270206A1, “COMPOSITIONS AND METHODS FOR INHIBITION OF RAS” (TheRas, Inc., priority 2022, published 2025).

How the values were obtained:
[1] = target: T1, GDP-loaded KRAS4b (amino acids 1-169) G12C/C118S (Homo sapiens, UniProt P01116, C118S/G12C); assay: MALDI-TOF MS covalent Cys12 modification, GDP-loaded KRAS G12C; type: binding; conditions: 15 minutes reaction time, 1 μM protein, 1:2.5 protein to compound ratio
T1 construct: KRAS4b (amino acids 1-169) G12C/C118S protein; made in house
In short: (§1)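 1 μM KRAS4b(1-169) G12C/C118S loaded with GTP, GppNHp or GDP in 20 mM HEPES, 150 mM NaCl, 1 mM MgCl2, pH 7.3, treated at a 1:2.5 protein:compound ratio in the dark at room temperature. Linear-mode MALDI-TOF; percent modification = adduct peak height over total protein peak heights, at 15 min.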

pERK in NCI-H358 cells = assay: Cell-based pERK HTRF assay; conditions: Homo sapiens, 0.5 h, 30 min incubation
In short: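 KRAS G12C NCI-H358 cells in RPMI/10% FBS treated 30 min with compound, 9-point 3-fold series from 75 μM final top, 0.25% DMSO. Lysates read for phospho-ERK by HTRF (d2/Eu cryptate antibodies, 615 nm emission) after 4–24 h room-temperature incubation.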

[2] = target: T2, Avi-KRAS G12C (1-169) GppNHp/RAF1 RBD-3×FLAG (52-151) (Homo sapiens, UniProt P01116, G12C); assay: KRAS G12C-effector (RAF1 RBD) protein:protein interaction HTRF disruption assay; type: biochemical; conditions: PPI HTRF
T2 construct: Avi-KRAS G12C (1-169) GppNHp
In short: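 50 nM Avi-KRAS G12C (1-169) loaded with GppNHp, then 75 nM RAF1 RBD-3×FLAG, then HTRF detection mix, each step 1 h at room temperature. Buffer was 50 mM Tris pH 7.5, 100 mM NaCl, 5 mM MgCl2, 0.1% BSA, 0.01% Tween 20, 10% DMSO. Compounds titrated 30-0.02 μM (3× series). Read at 615 nm emission, reported as % activity vs DMSO (100%).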

[3] = target: T3, GppNHp-loaded KRAS4b (amino acids 1-169) G12C/C118S (Homo sapiens, UniProt P01116, C118S/G12C); assay: MALDI-TOF MS covalent Cys12 modification, GppNHp-loaded KRAS G12C; type: binding; conditions: 15 minutes reaction time, 1 μM protein, 1:2.5 protein to compound ratio
T3 construct: KRAS4b (amino acids 1-169) G12C/C118S protein; made in house
In short: as §1

[4] = target: T4, GTP-loaded KRAS4b (amino acids 1-169) G12C/C118S (Homo sapiens, UniProt P01116, C118S/G12C); assay: MALDI-TOF MS covalent Cys12 modification, GTP-loaded KRAS G12C; type: binding; conditions: 15 minutes reaction time, 1 μM protein, 1:2.5 protein to compound ratio
T4 construct: KRAS4b (amino acids 1-169) G12C/C118S protein; made in house
In short: as §1

Compound	GDP-KRAS G12C percent of modification [1]	IC50 (pERK in NCI-H358 cells) [nM]	IC50 [2] [nM]	GppNHp-KRAS G12C percent of modification [3]	GTP-KRAS G12C percent of modification [4]
C=CC(=O)N1CC[C@@H](N(C)c2nc(OC[C@@]34CCCN3C[C@H](F)C4)nc3cc(-c4ccc(F)c5sc(N)c(C#N)c45)c(C(F)(F)F)nc23)[C@H]1C [Compound 15]	A (percent of modification ≥70%)	≤ 100	≤ 500	A (percent of modification ≥70%)	A (percent of modification ≥70%)
C=CC(=O)N1CC[C@@H](N(C)c2nc(OC[C@@]34CCCN3C[C@H](F)C4)nc3c(F)c(-c4ccc(F)c5sc(N)c(C#N)c45)ncc23)[C@H]1C [Compound 17, 4-(4-(((2R,3R)-1-acryloyl-2-methylpyrrolidin-3-yl)(methyl)amino)-8-fluoro-2-(((2R,7aS)-2-fluorotetrahydro-1H-pyrrolizin-7a(5H)-yl)methoxy)pyrido[4,3-d]pyrimidin-7-yl)-2-amino-7-fluorobenzo[b]thiophene-3-carbonitrile]	A (percent of modification ≥70%)	≤ 100	≤ 500	A (percent of modification ≥70%)	A (percent of modification ≥70%)
C=CC(=O)N1C[C@@H](F)[C@@H](N(CC)c2nc(OC[C@@]34CCCN3C[C@H](F)C4)nc3c(F)c(-c4ccc(F)c5sc(N)c(C#N)c45)ncc23)C1 [Compound 18]	A (percent of modification ≥70%)	≤ 100	≤ 500	A (percent of modification ≥70%)	A (percent of modification ≥70%)
C=CC(=O)N1CCC(N(CC)c2nc(OC[C@@]34CCCN3C[C@H](F)C4)nc3c(F)c(-c4ccc(F)c5sc(N)c(C#N)c45)ncc23)[C@H]1C (stereo partly shown) [Compound 19]	A (percent of modification ≥70%)	≤ 100	≤ 500	A (percent of modification ≥70%)	A (percent of modification ≥70%)
C=CC(=O)N1CCC(N(C)c2nc(OC[C@@H]3C[C@@H](OC)CN3C)nc3c(F)c(-c4ccc(F)c5sc(N)c(C#N)c45)ncc23)[C@H]1COC (stereo partly shown) [Compound 20]	A (percent of modification ≥70%)	100 to 1000	≤ 500	A (percent of modification ≥70%)	A (percent of modification ≥70%)
C=CC(=O)N1CCC(N(C)c2nc(OC[C@@H]3C[C@@H](F)CN3C)nc3c(F)c(-c4ccc(F)c5sc(N)c(C#N)c45)ncc23)[C@H]1C (stereo partly shown) [Compound 23]	A (percent of modification ≥70%)	100 to 1000	≤ 500	A (percent of modification ≥70%)	A (percent of modification ≥70%)
C=CC(=O)N1CCC(N(CC)c2nc(OC[C@@]34CCCN3C[C@H](F)C4)nc3c(F)c(-c4ccc(F)c5sc(N)c(C#N)c45)ncc23)[C@H]1COC (stereo partly shown) [Compound 25]	A (percent of modification ≥70%)	100 to 1000	≤ 500	A (percent of modification ≥70%)	A (percent of modification ≥70%)
C=CC(=O)N1CCC(N(C)c2nc(OC[C@@H]3C[C@@H](F)CN3C)nc3c(F)c(-c4ccc(F)c5sc(N)c(C#N)c45)ncc23)[C@H]1COC (stereo partly shown) [Compound 27]	A (percent of modification ≥70%)	100 to 1000	≤ 500	A (percent of modification ≥70%)	A (percent of modification ≥70%)
C=CC(=O)N1CCC(N(C)c2nc(OC[C@@H]3C[C@@H](OC)CN3C)nc3c(F)c(-c4ccc(F)c5sc(N)c(C#N)c45)ncc23)[C@H]1C (stereo partly shown) [Compound 28]	A (percent of modification ≥70%)	100 to 1000	≤ 500	A (percent of modification ≥70%)	A (percent of modification ≥70%)
C=CC(=O)N1CCC(N(CC)c2nc(OC[C@@]34CCCN3C[C@H](F)C4)nc3c(Cl)c(-c4ccc(F)c5sc(N)c(C#N)c45)ncc23)[C@H]1COC (stereo partly shown) [Compound 30]	A (percent of modification ≥70%)	100 to 1000	≤ 500	A (percent of modification ≥70%)	A (percent of modification ≥70%)
C=CC(=O)N1CCC(N(CC)c2nc(OC[C@@]34CCCN3C[C@H](F)C4)nc3c(Cl)c(-c4ccc(F)c5sc(N)c(C#N)c45)ncc23)[C@H]1C (stereo partly shown) [Compound 37]	A (percent of modification ≥70%)	≤ 100	≤ 500	A (percent of modification ≥70%)	A (percent of modification ≥70%)
C=CC(=O)N1CCC(N(C)c2nc(OC[C@@]34CCCN3C[C@H](F)C4)nc3c(Cl)c(-c4ccc(F)c5sc(N)c(C#N)c45)ncc23)[C@H]1CC (stereo partly shown) [Compound 38]	A (percent of modification ≥70%)	≤ 100	≤ 500	A (percent of modification ≥70%)	A (percent of modification ≥70%)
C=CC(=O)N1CCC(N(C)c2nc(OC[C@@]34CCCN3C[C@H](F)C4)nc3c(F)c(-c4ccc(F)c5sc(N)c(C#N)c45)ncc23)[C@H]1CC (stereo partly shown) [Compound 39]	A (percent of modification ≥70%)	100 to 1000	≤ 500	A (percent of modification ≥70%)	A (percent of modification ≥70%)
C=CC(=O)N1CCC(N(CC)c2nc(OC[C@@]34CCCN3C[C@H](F)C4)nc3c(F)c(-c4ccc(F)c5sc(N)c(C#N)c45)ncc23)[C@H]1CC (stereo partly shown) [Compound 40]	A (percent of modification ≥70%)	100 to 1000	≤ 500	A (percent of modification ≥70%)	A (percent of modification ≥70%)
C=CC(=O)N1CCC(N(CC)c2nc(OC[C@@]34CCCN3C[C@H](F)C4)nc3c(Cl)c(-c4ccc(F)c5sc(N)c(C#N)c45)ncc23)[C@H]1CC (stereo partly shown) [Compound 41]	A (percent of modification ≥70%)	100 to 1000	≤ 500	A (percent of modification ≥70%)	A (percent of modification ≥70%)
C=CC(=O)N1CC[C@@H](N(C)c2nc(OC[C@@]34CCCN3C[C@H](F)C4)nc3c(F)c(-c4ccc(F)c5sc(N)c(C#N)c45)ncc23)[C@H]1CC [Compound 42]	A (percent of modification ≥70%)	100 to 1000	≤ 500	A (percent of modification ≥70%)	A (percent of modification ≥70%)
C=CC(=O)N1CC[C@@H](N(CC)c2nc(OC[C@@]34CCCN3C[C@H](F)C4)nc3c(Cl)c(-c4ccc(F)c5sc(N)c(C#N)c45)ncc23)[C@H]1CC [Compound 43]	A (percent of modification ≥70%)	100 to 1000	≤ 500	A (percent of modification ≥70%)	A (percent of modification ≥70%)
